Source: patent US9237750B2, “Ornidazole and related compounds for use as herbicides” (RAMOT AT TEL-AVIV UNIVERSITY LTD., priority 2012, dated 2016)

Columns and labels:
[1] = system: Anabaena PCC7120; assay: Biodegradation in BG-11 medium in the presence of Anabaena cells (LC-MS); details: 0.1 mM, in the presence of cyanobacteria
Experimental: Ornidazole (molecular mass 220 and 222 due to two isotopes of chlorine) or degradation products were sought by LC-MS. The chromatograms of samples from the first and fourth days are shown in FIG. 7B and FIG. 7C, respectively. The retention time and molecular mass of the isolated molecules are designated.
The concentrations of Ornidazole and its degradation product in the medium were determined during the growth of the cyanobacterium Anabaena PCC7120 and in media lacking cyanobacteria in the dark or under illumination. Ornidazole at 0.1 mM concentration was added to three growth tubes containing BG-11 medium: one growth tube was kept in the dark, the second under light conditions of 60 μmol photons m^−2 sec^−1 and the third tube, to which Anabaena cells were added, was also kept under similar light conditions. Samples from each tube were taken every day, separated on a C18 reverse phase HPLC column, and Ornidazole (molecular mass 220 and 222 due to two isotopes of chlorine) or degradation products were sought by LC-MS. A degradation product of molecular mass 184, identified as C7H9N3O3, was found in all three tubes.

[2] = system: photosynthetic electron transport in Anabaena; assay: Photosynthetic electron transport from H2O via reaction centers II and I and Methyl viologen to O2; format: cell-based, Anabaena PCC7120; details: water to Methyl viologen (1 mM) to oxygen; O2 electrode
Experimental: The rates were determined for cells grown in a growth medium at 30° C. under 180 μmol photons×m^−2×sec^−1. The rate of electron transport from H2O via reaction centers II and I and Methyl viologen to O2 was determined in the presence of 1 mM methyl viologen using an O2 electrode. The effects of Ornidazole on the dark and light reactions of the photosynthetic apparatus were examined. Ornidazole had no effect on the photosynthetic electron transport in Anabaena measured from water as electron donor through the two reaction centers to Methyl viologen and finally to oxygen as an electron acceptor (FIG. 5).

[3] = system: Lemna; assay: PAM fluorescence parameters of aquatic plant; format: in vivo; details: 1 mM Ornidazole in growth medium; actinic light 210 μmol photons×m^−2×sec^−1
Experimental: The fluorescence under dim (3 μmol photons×m^−2×sec^−1) and saturating (2000 μmol photons×m^−2×sec^−1, 0.8 sec) flash light (Fo and Fmax, respectively) of pre-darkened plants was determined in the presence or absence of 1 mM Ornidazole in the growth medium, using a PAM fluorimeter. Quantum yield and non-photochemical quenching (qN) were determined with saturating flashes under actinic light (210 μmol photons×m^−2×sec^−1).
(§1) The rate of net O2 exchange was determined using a Clark-type O2 electrode (Rank Brothers Ltd, UK). Fluorescent measurements (quantum yield, photochemical and non photochemical quenching) were determined using a modulated fluorometer (PAM, Walz, Germany) as described by Schreiber et al. (Schreiber U et al., 1986. fluorometer. Photosynth Res 10, 51-62) and Snir et al. (Snir A, et al., 2006. Photosynth Res 90, 233-242).
The effect of Ornidazole on photosynthesis was further examined in the aquatic plant Lemna. Lemna plants were collected from a pond at the Botanical garden of Tel Aviv University and kept in the pond water as a growth medium. The fluorescence under dim (3 μmol photons m^−2 sec^−1) and saturating (2000 μmol photons m^−2 sec^−1, 0.8 sec) flash light (Fo and Fmax, respectively) of pre-darkened plants was determined in the presence or absence of 1 mM Ornidazole in the growth medium, using a PAM fluorimeter (H. Walz, Germany). […]

[4] = system: Sedoheptulose bisphosphatase; assay: Calvin cycle enzyme activity; format: biochemical, Anabaena; details: 1 mM Ornidazole
Experimental: (§2) Rubisco was assayed as described by Marcus et al. (2005, ibid) and Snir et al. (2006, ibid). Phospho-ribulose kinase was assayed by conversion of phospho-ribulose to RuBP, which was determined by Rubisco dependent carboxylation with radiolabeled ^14CO2. Plant or cyanobacterial extract was incubated with medium containing 50 mM Hepes pH 8, 10 mM MgCl2, 20 mM NaH^14CO3, 1 mM DTT, 0.5 mM ribose-5-phosphate, ribose-5-phosphate isomerase and activated Rubisco. Phosphoglycerate kinase, GAPDH, FBPase and SBPase were determined as described by Leegood (Leegood R C., 1990. In: Methods in plant biochemistry, Vol 3, pp 15-37, Academic Press).
(§3) However, analysis of Ornidazole effect on various enzymes of the Calvin cycle in Anabaena including ribulose-bisphosphate carboxylase/oxygenase (Rubisco), phosphoglycerate kinase, glyceraldehyde-3-phosphate dehydrogenase (GAPDH), triose-phosphate isomerase, aldolase, fructose and sedoheptulose bisphosphatase and phosphoribulose kinase, has shown inhibition of GAPDH and triose-phosphate isomerase (Table 2).

[5] = system: Phosphoribulose kinase; assay: Calvin cycle enzyme activity; format: biochemical, Anabaena; details: 1 mM Ornidazole
Experimental: as §2, §3

[6] = molecular target: T1, Triose phosphate isomerase (Nostoc sp., UniProt Q8YP17); assay: Calvin cycle enzyme activity; format: biochemical, Anabaena; design: endogenous in cells; host or cells: Anabaena PCC7120 extract; details: 1 mM Ornidazole
T1 sequence (Q8YP17 1-241): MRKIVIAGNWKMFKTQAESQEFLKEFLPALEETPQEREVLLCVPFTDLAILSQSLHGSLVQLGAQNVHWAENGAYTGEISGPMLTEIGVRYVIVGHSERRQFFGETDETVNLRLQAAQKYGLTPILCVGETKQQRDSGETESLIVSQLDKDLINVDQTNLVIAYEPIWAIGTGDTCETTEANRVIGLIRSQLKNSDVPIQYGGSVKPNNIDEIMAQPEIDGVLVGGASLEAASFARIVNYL
Experimental: as §2, §3

[7] = system: Phaeodactylum tricornutum; assay: Net O2 exchange (photosynthesis and respiration), O2 electrode; format: cell-based, Phaeodactylum tricornutum (Diatoms)
Experimental: The cyanobacterium Anabaena PCC7120 was grown in BG-11 medium as was previously described (Marcus Y, et al., 2005. J Bacteriol 187, 4222-4228). The green eukaryotic alga Dunaliella salina was grown on a medium described by Ben-Amotz and Avron (Ben-Amotz A and Avron M 1983. Plant Physiol 72, 593-597), under 20 μmol photons m^−2 sec^−1 at 30° C. The aquatic plant Lemna was collected from an open pond at the Botanical garden of Tel Aviv University. Seedlings of Avena sterilis were grown in pots in a greenhouse. The marine diatom Phaeodactylum tricornutum was grown as described in Haimovich-Dayan et al. (Haimovich-Dayan M. et al. 2012. New Phytol 195:177-185).
as §1
The algae Anabaena PCC7120 (Cyanobacteria), Dunaliella salina (Chlorophyta) and Phaeodactylum tricornutum (Diatoms) were each grown in its suitable medium as described hereinabove towards the mid logarithmic phase. 1 mM Ornidazole was then added to the medium for 5 min, and respiration and photosynthesis were measured for at least 10 min.

[8] = Phaeodactylum tricornutum, 1 mM Ornidazole added for 5 min

Cc1ncc([N+](=O)[O-])n1CC(O)CCl (stereo not shown) [Ornidazole, 1-chloro-3-(2-methyl-5-nitro-1H-imidazol-1-yl)propan-2-ol]
Ornidazole remaining, of its initial concentration ([1]; after four days of incubation): 10%
Ornidazole detection in medium ([1]; after seven days): could no longer be detected
effect on photosynthetic electron transport [2]: no effect
non-photochemical quenching [3]: increased
photosynthetic quantum yield [3]: decreased significantly
Activity [4]: 62 μmol × mg^−1chl × h^−1
Activity [5]: 66.7 μmol × mg^−1chl × h^−1
Activity ([6]; Triose phosphate isomerase): 0 μmol × mg^−1chl × h^−1
inhibition at 1000 µM ([6]; triose-phosphate isomerase): 98 to 100%
Photosynthesis [7, 8]: −4.33 μmol O2 mg^−1 chl h^−1
Respiration [7, 8]: −67.14 μmol O2 mg^−1 chl h^−1
effect on respiration rate ([7]; Phaeodactylum, 1 mM): stimulated the respiration rate
effect on photosynthesis ([7]; Phaeodactylum, higher concentrations (than 1 mM) or longer incubation time): abolished photosynthesis
